Source: ChEMBL document CHEMBL4184288, “Marine bis-γ-pyrone polypropionates of onchidione family and their effects on the XBP1 gene expression” (Bioorg Med Chem Lett, 2018)
Calls of active or inactive are those of the source. No cut-off for these calls is given here.

Experiments:
Mus musculus [1] = species on record: Mus musculus; experiment: Activation of XBP1 mRNA splicing in tunicamycin-stimulated mouse B16F10 cells harboring XBP1-DBD-luc at 10 ug/ml treated 24 hrs post tunicamycin measured after 8 hrs by luciferase reporter gene assay relative to control
Mus musculus [2] = species on record: Mus musculus; experiment: Activation of XBP1 mRNA splicing in tunicamycin-stimulated mouse B16F10 cells harboring XBP1-DBD-luc treated 24 hrs post tunicamycin measured after 8 hrs by luciferase reporter gene assay relative to control
Mus musculus [3] = species on record: Mus musculus; experiment: Activation of XBP1 mRNA splicing in tunicamycin-stimulated mouse B16F10 cells harboring XBP1-DBD-luc at 1 ug/ml after 8 hrs by luciferase reporter gene assay relative to control

With CCc1oc([C@H](C)[C@@]2(O)O[C@@H]([C@@H](C)c3oc([C@@H](C)[C@H](CC)OC(C)=O)c(C)c(=O)c3C)[C@@H](C)[C@H](OC(=O)CC(C)C)[C@@H]2C)c(C)c(=O)c1C the Activity (Mus musculus [1]) was 234% and the fold change (FC) (Mus musculus [1]) was 2.

In the case of CCc1oc([C@H](C)[C@@]2(O)O[C@@H]([C@@H](C)c3oc([C@@H](C)[C@@H](O)CC)c(C)c(=O)c3C)[C@@H](C)[C@H](OC(=O)CC(C)C)[C@@H]2C)c(C)c(=O)c1C, the Activity (Mus musculus [2]) is reported as “inactive”.

Molecule CCCCCCCCCCCCC/C=C/C(=O)N[C@H]1[C@H](O[C@H]2O[C@H](CO)[C@@H](O)[C@H](O)[C@H]2NC(C)=O)O[C@H](CC(O)[C@H]2O[C@@H](n3ccc(=O)[nH]c3=O)[C@H](O)[C@@H]2O)[C@H](O)[C@@H]1O (some centres undefined) has an Activity (Mus musculus [3]) of 178%.

CCC(=O)O[C@@H](CC)[C@H](C)c1oc([C@H](C)[C@@H]2O[C@](O)([C@@H](C)c3oc(CC)c(C)c(=O)c3C)[C@@H](C)[C@@H](OC(=O)CC(C)C)[C@@H]2C)c(C)c(=O)c1C was tested, and the Activity (Mus musculus [2]) was “inactive”.

For CCC(=O)[C@H](C)c1oc([C@H](C)[C@@H]2O[C@](O)([C@@H](C)c3oc(CC)c(C)c(=O)c3C)[C@@H](C)[C@@H](OC(=O)CC(C)C)[C@@H]2C)c(C)c(=O)c1C, the Activity (Mus musculus [1]) was 210% and the fold change (FC) (Mus musculus [1]) was 2.

Work on CCC(=O)[C@@H](C)c1oc([C@H](C)[C@@H]2O[C@](O)([C@@H](C)c3oc(CC)c(C)c(=O)c3C)[C@@H](C)[C@@H](OC(=O)CC(C)C)[C@@H]2C)c(C)c(=O)c1C yielded an Activity (Mus musculus [1]) of 218% and a fold change (FC) (Mus musculus [1]) of 2.
